In the METLIN SMRT retention time set (Domingo-Almenara et al. 2019):

Test: gradient 5% acetonitrile 3 min, to 50% in 2 min, to 85% in 15 min, held 3 min, 100 µL/min
Conditions: column: Zorbax Extend-C18 2.1 x 50 mm; eluents: water / acetonitrile, 0.1% formic acid
Method in brief: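 The system's dead and dwell volumes were 40 μL and 900 μL, with a Zorbax Extend-C18 column (2.1 × 50 mm, 1.8 μm) run at 100 μL/min in water and acetonitrile containing 0.1% formic acid each. Pure standards were analyzed in mixtures of ~100 molecules by HPLC–quadrupole time-of-flight mass spectrometry in positive and negative ionization mode. Retention time was assigned from computationally picked, manually inspected adduct peaks.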

| SMILES | RP-LC retention time [s] |
| --- | --- |
| O=C(COc1ccccc1)Nc1nc(-c2ccccc2)cs1 | 1050 |
| CNc1nc(Nc2ccccc2)nc2ccccc12 | 633 |
| COCCOC(=O)C1=C(C)NC(C)=C(C(=O)OC/C=C/c2ccccc2)C1c1cccc([N+](=O)[O-])c1 (configuration not stated) | 1210 |
| CCOC(=O)c1cnc2nc(C)ccc2c1Nc1cc(OC)c(OC)c(OC)c1 | 671 |
| Cc1nn2c(CNS(=O)(=O)c3ccc4c(c3)OCCO4)c(-c3ccccc3)nc2s1 | 817 |
| COc1ccc(OC)c(-c2ccc(=O)n(CCc3nc(-c4ccc(F)cc4)no3)n2)c1 | 977 |
| COc1ccc(-c2noc(Cn3nc(-c4ccccc4)ccc3=O)n2)cc1 | 953 |
| Cc1ccc(S(=O)(=O)N2CC3CN(C(=O)c4cccn4C)CC(C2)O3)cc1 | 807 |
| COCC1CN(Cc2cn[nH]c2-c2ccc(F)cc2)CCC1(F)F (configuration not stated) | 619 |
| CCN(CCO)CCCOc1ccc2c(Nc3cc(CC(=O)Nc4cccc(F)c4)[nH]n3)ncnc2c1 | 611 |
| Cc1sc(C)c(S(=O)(=O)NCC(C)c2ccccc2)c1-c1cc(C(F)(F)F)on1 (configuration not stated) | 1250 |
| O=C(Cn1c(=O)c2cc(-c3cccs3)nn2c2ncccc21)NCCc1ccccc1 | 829 |
| COC[C@@H]1CN(S(=O)(=O)c2ccc(C#N)cc2)C[C@H]1c1ccccn1 | 746 |
| CCc1nc2ccc(-c3noc(-c4cccs4)n3)cc2n1CC | 702 |
| Cc1ccc(-c2noc(-c3nn(CC(=O)NC(C)C)c4ccccc34)n2)cc1 | 1080 |
| Cc1cc(NCc2ccccn2)n2c(nc3ccccc32)c1C#N | 590 |
| CC(C)(C)c1ccc(C(=O)NCc2ccco2)cc1 | 873 |
| O=C(CSc1ccc(-n2ccnc2)nn1)N1CCc2ccccc21 | 578 |
| COc1ccc(NC(=O)CSc2nnc3c4cc(-c5ccc(F)cc5)nn4ccn23)c(OC)c1 | 648 |
| O=S(=O)(Nc1ccc(F)cc1)c1cccnc1Nc1cccc(F)c1 | 1060 |
| CC(NC(=O)C1=CCN(Cc2ccccc2)CC1)c1ccccc1 (configuration not stated) | 639 |
| Clc1ccc(CNc2nnc(N3CCOCC3)c3ccccc23)cc1 | 693 |

| SMILES | RP-LC retention time [s] |
| --- | --- |
| CC(C)(C)c1csc(-c2csc(S(=O)(=O)NCc3ccc(F)cc3F)c2)n1 | 1220 |
| COc1ccccc1-c1nc(Cn2nnc(-c3nc(-c4ccc(Cl)c(F)c4)no3)c2C)c(C)o1 | 1240 |
| O=C(CC(c1cccc(F)c1)n1cccc1)N1CCN(c2ccccn2)CC1 (configuration not stated) | 686 |
| c1ccc(-n2cnnc2C2CCCCN2Cc2ccncc2)cc1 (configuration not stated) | 584 |
| CCC(=O)Oc1cccc(N2C(=O)c3cccc([N+](=O)[O-])c3C2=O)c1 | 845 |
| Cc1cccc(NC(=O)CN2CCN(Cc3nc4ccccc4[nH]3)CC2)c1C | 541 |
| COc1ccc(OCc2noc(CNC(=O)C(C)n3nnc4ccccc4c3=O)n2)cc1 (configuration not stated) | 768 |
| COc1ccc(-c2nc(CCS(=O)(=O)c3ccc(Cl)cc3)no2)cc1OC | 946 |
| CCC(C(=O)NCCc1c[nH]c2ccc(OC)cc12)n1c2ccccc2c2cnn(C)c(=O)c21 (configuration not stated) | 890 |
| Cc1ccccc1Oc1nccn2c(=O)n(CC(=O)Nc3ccccc3Cl)nc12 | 863 |
| O=c1c2ccc(O)cc2oc2cc(O)ccc12 | 612 |
| Cc1cc([N+](=O)[O-])ccc1NS(=O)(=O)c1cc(Cl)ccc1Cl | 1020 |
| Clc1ccc(C(OCCN2CCCCC2)c2ccccc2)cc1 (configuration not stated) | 850 |
| CCCNC(=O)c1ccc(-c2nc3cc(NS(=O)(=O)c4cnc[nH]4)ccc3n2C)cc1 | 578 |
| COc1ccc(-c2noc(CN3N=NC4C(=O)N(c5cccc(F)c5)C(=O)C43)n2)c(OC)c1 (configuration not stated) | 610 |
| O=C(CSc1ccc(NC(=O)c2cccs2)nn1)Nc1nc2ccccc2s1 | 840 |
| O=C(CCc1c(-c2ccc(Cl)cc2)nc2ccccn12)Nc1cccc(F)c1 | 795 |
| Cc1ccccc1OCC(O)CN1CCN(c2ccc(Cl)cc2)CC1 (configuration not stated) | 787 |
| O=S(=O)(NC1CCCCC1n1cc(-c2ccccc2)nn1)c1ccccc1 (configuration not stated) | 789 |
| CNC(=O)c1cn2ccnc(-c3ccc(C)cc3)c2n1 | 755 |
| CCCCn1cc(S(=O)(=O)N2CCN(c3ccccc3C)CC2)c2cccnc21 | 1280 |
| O=S(=O)(c1ccc2c(c1)OCCO2)N1CCCn2nc(-c3cccnc3)cc2C1 | 621 |

Results, then the compound that gave them:

| RP-LC retention time [s] | SMILES |
| --- | --- |
| 624 | CCn1cc(CC(=O)NCC2CC2)c2cccnc21 |
| 656 | O=C(NCc1cccs1)NCC1CC(=O)N(Cc2ccc(F)cc2)C1 (configuration not stated) |
| 774 | CCc1ccc(S(=O)(=O)N2CCCC(Cn3cnc4cccnc43)C2)cc1 (configuration not stated) |
| 663 | O=C(CN1C(=O)C(C(=O)N2CCCC2)Sc2ccccc21)NC1CCN(Cc2ccccc2)CC1 (configuration not stated) |
| 808 | Cc1ccc(CNC(=O)C2CCN(c3nc(C4CCC4)nc4csc(C)c34)CC2)cc1C |
| 803 | O=C(NC1CCCC1)c1ccc2ccnc(N3CCN(c4ccc(F)cc4)CC3)c2c1 |
| 701 | CCCS(=O)(=O)N1CCC(Cc2ccc(COc3ccncc3)cc2)CC1 |
| 730 | CCOC(=O)C1CCc2sc(NC(=O)C3COCC(=O)N3Cc3ccccc3)nc21 (configuration not stated) |
| 622 | O=C(Nc1ccccc1)N1C[C@H]2C[C@H](C1)[C@H]1CCCC(=O)N1C2 |
| 820 | CN1c2cc(Cl)ccc2C(=O)NC12CCN(C(=O)NCc1ccc(F)cc1)CC2 |
| 937 | CCc1ccc(CNC(=O)C2CCCN(c3ccc(=O)n(-c4cccc(F)c4)n3)C2)cc1 (configuration not stated) |
| 900 | O=C(Nc1ccc2c(c1)CC(C(=O)NCCCc1ccccc1)CO2)c1cccs1 (configuration not stated) |
| 651 | COCCCNC(=O)C1CCN(C(=O)c2ncn3c2COC(c2ccc(OC)cc2)C3)CC1 (configuration not stated) |
| 755 | O=C(NCc1ccc(Br)cc1)C1CCCN(c2cnc3nccnc3c2)C1 (configuration not stated) |
| 650 | O=C(c1nnc(-c2ccc(S(=O)(=O)N3CCCC3)cc2)o1)N1CCN(c2ccccn2)CC1 |
| 839 | Cc1noc(C)c1Cc1ccc(C(=O)N2CCCCCCNC(=O)[C@@H]3CCCC[C@@H]32)o1 |
| 709 | CCc1ccc(C2=C(C)C(N3CCCN(C(=O)c4ccncc4)CC3)=NS2(=O)=O)cc1 |
| 690 | O=C(CN1CCC(c2nc(-c3cccs3)no2)CC1)NCc1ccccc1Cl |
| 699 | Cc1nc(-c2cc(S(=O)(=O)NCCCN3CCC(C)CC3)c(C)s2)sc1C |
| 558 | CCNC(=O)C1CCN(c2nccc3sccc23)CC1 |
| 887 | Cc1ccc(C(=O)N2CCC(COc3ccc(C(=O)NC4CC4)cc3)CC2)cc1C |
| 986 | CCOC(=O)c1c(S(=O)(=O)N2CCC(C(=O)Nc3cccc(Cl)c3)CC2)c(C)n(CC)c1C |

| RP-LC retention time [s] | SMILES |
| --- | --- |
| 695 | O=C(NC1CCN(c2cc(-c3ccc(F)cc3)[nH]n2)C1)c1ccc2c(c1)OCO2 (configuration not stated) |
| 969 | Cc1ccc(C(C)NC(=O)c2cccc(C3CCCN(C(=O)NC(C)C)C3)c2)c(C)c1 (configuration not stated) |
| 1070 | CCc1nc(-c2csc(S(=O)(=O)N3CCCC(C(=O)Nc4cccc(F)c4)C3)c2)no1 (configuration not stated) |
| 881 | CCN1c2ccccc2C(=O)NC12CCN(C(=O)NCc1ccccc1)CC2 |
| 668 | O=C(Nc1cccc2nsnc12)C1CCN(c2ccc(-c3cccs3)nn2)CC1 |
| 873 | O=C(CCCn1nnc2cc(S(=O)(=O)N3CCCC3)ccc21)N1CCCc2ccccc21 |
| 631 | CC(=O)N1CCC([C@@H]2CN(C(=O)C3(C)CCCCC3)C[C@H]2CO)CC1 |
| 700 | CCC(=O)Nc1ccc2c(c1)CN(C(=O)c1c(F)cccc1F)C(C(=O)N1CCCC1)C2 (configuration not stated) |
| 799 | Cc1cc2c(cc1S(=O)(=O)N1CCCC1C(=O)NCC(C)c1ccccc1)OCC(=O)N2 (configuration not stated) |
| 633 | Cc1noc(C)c1Cc1ccc(C(=O)N2CCc3nn(C)c(=O)n3CC2)o1 |
| 837 | O=C(O)C1CCN(c2nc3ccc(-c4cccs4)nc3s2)CC1 |
| 740 | COc1ccc(OC)c(NC(=O)Cn2c(=O)nc(NC3CCCC3)c3ccccc32)c1 |
| 610 | O=C(c1ccc2c(c1)OCO2)N1CC(c2noc(C3CCCN3CC3CC3)n2)C1 (configuration not stated) |
| 855 | CSc1ccccc1N1CCN(CCCCCC(=O)NC2CCCc3ccccc32)CC1 (configuration not stated) |
| 621 | O=C(NC1CCCCC1)N1CC(c2nnc(-c3ccncc3)o2)C2(CCOCC2)C1 (configuration not stated) |
| 734 | COCCN1CCCCc2cc(C(=O)NC3CCS(=O)(=O)C3)sc21 (configuration not stated) |
| 1260 | Cc1ccc(Sc2nccnc2N2CCCC(C(=O)Nc3ccc(C)c(F)c3)C2)cc1 (configuration not stated) |
| 672 | CCn1cc(CN2CCC(C(=O)NC(C)CCc3ccccc3)CC2)c2cc(Cl)ccc21 (configuration not stated) |
| 967 | CCN1C(=O)c2ccccc2Oc2ccc(C(=O)NC3CCCCC3)cc21 |
| 645 | COCCNC(=O)C1CCN(C(=O)c2ncn3c2COC(c2ccc(F)cc2)C3)CC1 (configuration not stated) |
| 681 | Cc1ccc(CNC(=O)c2nsc(C(=O)N3CCN(c4ccccn4)CC3)c2N)cc1 |
